{"source": "patent US10835513B2", "about": "“Methods and treatments for the learning and memory deficits associated with Noonan syndrome” (The Regents of the University of California, priority 2013, dated 2020)", "system": "pyramidal neurons of Ptpn11^D61G/+ mice", "experiment": "Whole-cell voltage clamp mEPSC recordings in Ptpn11^D61G/+ mice", "format": "cell-based", "conditions": "SL327 1 μM", "procedure": "FIG. 4 are graphs showing PTPN11^D61G overexpression enhances excitatory synaptic function through increased Ras-Erk signaling. Panel a) AMPA receptor-mediated currents were measured at the peak of the currents at −65 mV, and NMDA currents were measured 50 ms after onset at +40 mV. The average of 15 traces is shown. Scale, 100 pA and 40 ms. Panel b) Group data showing the increased AMPA:NMDA current ratio in AAV-PTPN11^D61G mice (1.51±0.11, n=10 cells from 5 mice) compared with AAV-GFP mice (0.96±0.05, n=10 cells from 5 mice, t-test, ***P<0.001). […] Two-way ANOVA, interaction between viral treatment and drug, F(1, 31)=10.53, **P<0.01. […] Panel c) Paired-pulse facilitation ratio is unaffected by PTPN11^D61G. There was no significant difference at 25 ms or 50 ms intervals between two groups (AAV-PTPN11^D61G, n=12 cells from 5 mice; AAV-GFP, n=11 cells from 5 mice). Repeated-measures ANOVA, F(1, 21)=0.010, P=0.921. […]\nWhole-cell voltage clamp recordings were done with an Axopatch 200B amplifier (Axon Instrument) as previously described^29, 30. […] For mEPSC recordings, voltage clamp recordings were performed at −60 mV in the presence of 100 μM picrotoxin and 1 μM TTX. mIPSCs were measured at +10 mV in the presence of 1 mM kynurenic acid and 1 μM TTX. […]"}
{"smiles": "N#C/C(=C(/N)Sc1ccc(N)cc1)c1ccccc1C(F)(F)F", "note": "[SL327]", "values": [{"measurement": "mEPSC frequency", "setting": "Ptpn11^D61G/+ mice", "value": "2.87±1.02"}, {"measurement": "mEPSC frequency", "setting": "WT littermates", "value": "2.46±0.63"}]}
